For one assay, the target named is T1, human cloned B2 receptor (Homo sapiens, UniProt P30411).
T1 construct: purchased Euroscreen, Gosselies, Belgium; host or cells: CHO cells (recombinant, CHO-B2), used as cell homogenates/membranes
T1 sequence (P30411 1-391): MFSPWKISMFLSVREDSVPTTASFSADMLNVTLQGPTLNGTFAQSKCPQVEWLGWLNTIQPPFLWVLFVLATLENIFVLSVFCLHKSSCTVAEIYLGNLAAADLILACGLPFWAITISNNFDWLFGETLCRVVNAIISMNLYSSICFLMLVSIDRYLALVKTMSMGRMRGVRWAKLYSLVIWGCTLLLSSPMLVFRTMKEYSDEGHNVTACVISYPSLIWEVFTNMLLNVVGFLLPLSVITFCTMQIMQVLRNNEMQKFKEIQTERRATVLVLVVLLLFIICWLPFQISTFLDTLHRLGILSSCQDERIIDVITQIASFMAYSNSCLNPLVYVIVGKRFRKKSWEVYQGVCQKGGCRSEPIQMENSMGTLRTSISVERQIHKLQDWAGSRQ
In words: [^3H]-BK binding to human cloned B2 receptor (CHO-B2 membranes). The conditions noted are these: 0.2 nM [^3H]-BK, CHO-B2 homogenates 2.5 µg protein, 60 min, 23 °C, 50 mM Tris/HCl pH 7.4; mean±SEM, up to 19 experiments; read-out: Ligand binding inhibition constant at human cloned B2 receptors (Ki). As to the method:
However, in view of the difficulty of obtaining sufficient h-CM cells for these initial studies, we decided to use cell membranes of Chinese hamster ovary cells containing the human cloned B2 receptor (CHO-B2; Euroscreen, Gosselies, Belgium). […] Following this incubation, the samples were filtered rapidly under vacuum through glass fiber filters (PerkinElmer) presoaked with 0.3% polyethyleneimine and rinsed several times with an ice-cold 50 mM Tris-HCl buffer using a 96-sample cell harvester (TomTec; Gaithersburg, MD). The filters were air-dried and the radioactivity counted in a beta-scintillation counter (TopCount, PerkinElmer). Data were analyzed using a sigmoidal-fit, iterative algorithm of a computer program designed to automatically fit the new data (Activity base; IDBS, Surrey, UK).

Another assay deals with primary h-CM cells. Type of assay: cell-based, human. Conditions: for Effect on background level of total PGs, h-CM cells: alone, up to 100 nM, single experiment; for Effect on total PGs induced by 1 µM BK, h-CM cells: pretreatment, challenge with 1 µM BK.
The subject of assay [1] is CHO-B2 cells (human cloned B2 receptor). Type of assay: cell-based, Chinese hamster ovary cells. Conditions: compound on its own.
Procedure: (§1) Measurement of prostaglandins in human ciliary muscle and Chinese hamster ovary cells expressing B2 receptors
(§2) This involved stimulating h-CM cells and CHO-B2 cells with various concentrations of test peptides and measuring the release of various PGs in the extracellular medium. The concentration-dependent effects of these peptides on total PGs, and specifically PGE2, PGF2α, and PGD2 release, were studied. Cells were grown as a monolayer in a 24-well plate (precoated with fibronectin) to confluence and subsequently serum-starved overnight before the experiment. On the day of the experiment, just before the drug was added, the wells were aspirated completely, and 990 µl basal medium and 10 µl 100× series of concentrations of the different peptide agonists were added to achieve the desired final concentrations of each compound (e.g., 0.1 nM to 10 µM). […] At the end of the incubation period, the cellular supernatants were collected and stored at −80 °C or used immediately to determine the PG content. Cell supernatants were tested for total PG levels and sub-species of PGs (PGE2, PGF2α, and PGD2) using specific competitive enzyme immunoassays (Cayman Chemical Co., Ann Arbor, MI) as directed in the manufacturer’s recommended protocols using the supplied standards and reagents. The limits of detection for various PGs were as follows: total PGs=29 pg/ml; PGE2=15 pg/ml; PGF2α=9 pg/ml; PGD2=200 pg/ml.
For another assay, the system named is COX-1 and COX-2. Conditions: ref [43]; cited from earlier work.

Molecules are shown by their SMILES. Square brackets hold non-standard residues; d marks the D form. Peptide text beside a SMILES is read from it. * marks the point of attachment. X1 = COc1ccc(C[C@@H](CN[C@@H](CCCNC(=N)N)C(=O)O)N*)cc1; Hyp = O=C(O)[C@@H]1C[C@@H](O)CN1; 2Thi = N[C@@H](Cc1cccs1)C(=O)O

Here are results for 5 compounds from publication PMC3693772, “Protein expression, biochemical pharmacology of signal transduction, and relation to intraocular pressure modulation by bradykinin B2 receptors in ciliary muscle” (Molecular Vision, 2013).

The term Ki denotes a dissociation constant, usually derived from enzyme kinetics or from competition with a known ligand.

Procedure for primary h-CM cells: as §1, §2

As to `COc1ccc(C[C@@H](CN[C@@H](CCCNC(=N)N)C(=O)O)NC(=O)[C@@H]2CCCN2C(=O)[C@H](CO)NC(=O)[C@H](Cc2cccs2)NC(=O)CNC(=O)[C@@H]2C[C@@H](O)CN2C(=O)[C@@H]2CCCN2C(=O)[C@@H](N)CCCNC(=N)N)cc1` [RMP-7] (H-RP[Hyp]G[2Thi]SP-X1), the Ki on human cloned B2 receptor was 11.3 ± 1.1 nM.
The same measure, in the same setting: the same measure for `CSCC[C@H](N)C(=O)N[C@@H](CCCCN)C(=O)N[C@@H](CCCNC(=N)N)C(=O)N1CCC[C@H]1C(=O)N1CCC[C@H]1C(=O)NCC(=O)N[C@@H](Cc1ccccc1)C(=O)N[C@@H](CO)C(=O)N1CCC[C@H]1C(=O)N[C@@H](Cc1ccccc1)C(=O)N[C@@H](CCCNC(=N)N)C(=O)O` [Met-Lys-BK]: 73 ± 24.7 nM.
In the case of `CC(C(=O)O)c1ccc(-c2ccccc2)c(F)c1` (stereo not drawn) [flurbiprofen], in the assay on primary h-CM cells, the “Effect on background level of total PGs, h-CM cells” value was “inhibited the background level of total PGs”. Besides, in the assay with primary h-CM cells (three experiments), the “Effect on total PGs induced by 1 µM BK, h-CM cells” value is “concentration-dependent reduction in total PGs synthesized and secreted, with flurbiprofen much more potent than bromfenac”. Moreover, the “PG production/release by compound alone, CHO-B2 cells” value in assay [1] is listed as “failed to influence PG production”. The “COX-1/COX-2 inhibition selectivity” value in the assay on COX-1 and COX-2 is “equally blocks COX-1 and COX-2”.
Turning to `Nc1c(CC(=O)O)cccc1C(=O)c1ccc(Br)cc1` [bromfenac], in the assay with primary h-CM cells (1 µM final, preincubated 5 min, three experiments), the “Effect on BK concentration-response of PG release, h-CM cells” value was “completely abolished PG synthesis and release”. Moreover, the “Effect on background level of total PGs, h-CM cells” value with primary h-CM cells is on record as “inhibited the background level of total PGs”. The “Effect on total PGs induced by 1 µM BK, h-CM cells” value with primary h-CM cells (three experiments) is “concentration-dependent reduction in total PGs synthesized and secreted”. Also, the “PG production/release by compound alone, CHO-B2 cells” value in assay [1] was “failed to influence PG production”. The “COX-1/COX-2 inhibition selectivity” value with COX-1 and COX-2 is “COX-2-selective”.
`NCCCC[C@H](N)C(=O)N[C@@H](CCCN=C(N)N)C(=O)N1CCC[C@H]1C(=O)N1CCC[C@H]1C(=O)NCC(=O)N[C@@H](Cc1ccccc1)C(=O)N[C@@H](CO)C(=O)N1CCC[C@H]1C(=O)N[C@@H](Cc1ccccc1)C(=O)N[C@@H](CCCN=C(N)N)C(=O)O` [Lys-BK]: the Ki at human cloned B2 receptor was found to be 1.8 ± 0.7 nM.
